These are literature values, as cited in patent US7365075B2, “Aryl sulfonamide compounds and uses related thereto” (Amgen Inc., priority 2003, dated 2008).

SMILES strings stand for the structures.

Turning to `CC1(C)[C@@H](OC(=O)CCC(=O)O)CC[C@]2(C)[C@H]3C(=O)C=C4[C@@H]5C[C@@](C)(C(=O)O)CC[C@]5(C)CC[C@@]4(C)[C@]3(C)CC[C@@H]12` [carbenoxolone], the “reduction of the intraocular pressure” value in the data set on normal patients was 20%. Also, the hepatic insulin sensitivity entry with humans is on record as “improved hepatic insulin sensitivity”. Moreover, in the data set on bone nodule formation, the “detrimental effects of glucocorticoids on bone nodule formation” value was “lessened”.
